≈ marks a conversion by molar mass, not a printed value. Where “and” joins values, the source holds several entries; their conditions need not be identical. Identical values can stand only once.
Key:
[1] = system: human red blood cells (hRBCs); test: Hemolysis assay; type: cell-based; details: 2 h at 37 °C
T. rubrum (PTCC 5143) = test: Microdilution MIC90, strain K; type: cell-based, Trichophyton rubrum; details: Trichophyton rubrum, PTCC5143, 48 h, filamentous fungi, 48 h at 37 °C, triplicate
[2] = system: C. tropicalis (PTCC 5028); test: Microdilution MIC90, strain E; type: cell-based; details: 24 h
Asp. terreus (PTCC 5023) = test: Microdilution MIC90, strain J; type: cell-based, Aspergillus terreus; details: Aspergillus terreus, PTCC5023, 48 h, filamentous fungi, 48 h at 37 °C, triplicate
[3] = system: T. mentagrophytes (PTCC 5054); test: Microdilution MIC90, strain M; type: cell-based; details: Trichophyton mentagrophytes, PTCC5054, 48 h
[4] = system: T. schoenleinii (PTCC 5221); test: Microdilution MIC90, strain N; type: cell-based; details: Trichophyton schoenleinii, PTCC5221, 48 h
M. canis (PTCC 5069) = test: Microdilution MIC90, strain O; type: cell-based; details: Microsporum canis, PTCC5069, 48 h
[5] = system: Asp. flavus (ATCC 204304); test: Microdilution MIC90, strain G; type: cell-based, Aspergillus flavus; details: filamentous fungi, 48 h at 37 °C, triplicate
[6] = system: Microsporum gypseum (PTCC 5070); test: Microdilution MIC90, strain L; type: cell-based; details: filamentous fungi, 48 h at 37 °C, triplicate
[7] = system: C. parapsilosis (ATCC 22019); test: Microdilution MIC90, strain D; type: cell-based; details: 24 h
C. glabrata (ATCC 90030) = test: Microdilution MIC90, strain C; type: cell-based; details: yeast, 24 h at 37 °C, triplicate
[8] = system: Asp. nidulans (PTCC 5014); test: Microdilution MIC90, strain F; type: cell-based, Aspergillus nidulans; details: Aspergillus nidulans, PTCC5014, 48 h, filamentous fungi, 48 h at 37 °C, triplicate
[9] = system: FLC-resistant clinical Candida isolate R3 (C. albicans); test: PMIC90, FLC-resistant isolate R3; type: cell-based; details: strain R3, planktonic
C. albicans (ATCC 10231) [10] = test: Microdilution MIC90, strain A; type: cell-based; details: for MIC90: 24 h, yeast, 24 h at 37 °C, triplicate
[11] = system: FLC-resistant clinical C. albicans isolate (R1) biofilm; test: Antibiofilm MTT reduction assay, strain R1; type: cell-based; details: triplicate
Asp. niger (PTCC 5154) = test: Microdilution MIC90, strain I; type: cell-based, Aspergillus niger; details: Aspergillus niger, PTCC5154, 48 h, filamentous fungi, 48 h at 37 °C, triplicate
C. albicans (ATCC 10231) [12] = test: Murine model of systemic candidiasis; type: in vivo; details: neutropenic mice (n = 5), 15 mg/kg oral gavage, left kidney tissue
[13] = system: FLC-resistant clinical Candida isolate R6 (C. albicans); test: PMIC90, FLC-resistant isolate R6; type: cell-based; details: strain R6, planktonic
[14] = system: FLC-resistant clinical Candida isolates (R1–R7); test: PMIC, seven FLC-resistant clinical Candida isolates; type: cell-based; details: read-out: MIC (growth inhibition concentrations)
[15] = system: FLC-resistant clinical Candida isolate R2 (C. albicans); test: PMIC90, FLC-resistant isolate R2; type: cell-based; details: strain R2, planktonic
[16] = system: FLC-resistant clinical Candida isolate R1 (C. albicans); test: PMIC90, FLC-resistant isolate R1; type: cell-based; details: strain R1, planktonic
[17] = system: FLC-resistant clinical Candida isolate R7 (C. glabrata); test: PMIC90, FLC-resistant isolate R7; type: cell-based; details: strain R7, planktonic
C. albicans (ATCC 10231) [18] = test: Membrane permeabilization assay; type: cell-based; details: 8b, 8c at 1 × MIC, 2 × MIC, 4 × MIC (0.5, 1, 2 μg/mL); AMB 1 μg/mL; 3 h at 28 °C
PANC-1 = test: MTT cytotoxicity assay, PANC-1; type: cell-based, human; details: 48 h
[19] = system: FLC-resistant clinical C. albicans isolate (R2) biofilm; test: Antibiofilm MTT reduction assay, strain R2; type: cell-based; details: triplicate
[20] = system: Asp. fumigatus (PTCC 5009); test: Microdilution MIC90, strain H; type: cell-based; details: Aspergillus fumigatus, PTCC5009, 48 h, filamentous fungi, 48 h at 37 °C, triplicate
[21] = system: FLC-resistant clinical Candida isolate R5 (C. albicans); test: PMIC90, FLC-resistant isolate R5; type: cell-based; details: strain R5, planktonic
C. krusei (ATCC 6258) = test: Microdilution MIC90, strain B; type: cell-based; details: for MIC90: 24 h, yeast, 24 h at 37 °C, triplicate
C. albicans (ATCC 10231) [22] = test: Time-kill assay; type: cell-based; details: 24 h period
A-431 = test: MTT cytotoxicity assay, A-431; type: cell-based, human; details: 48 h, MTT
[23] = system: FLC-resistant clinical Candida isolate R4 (C. albicans); test: PMIC90, FLC-resistant isolate R4; type: cell-based; details: strain R4, planktonic
HDF normal cells = test: MTT cytotoxicity assay, HDF; type: cell-based, human; details: HDF normal cell line, up to 100 μg/mL, 48 h
[24] = Aspergillus flavus, ATCC204304, 48 h

For Triton X-100 [reference compound], the hemolysis ([1]; positive control) was 86.2%.

O=C(Nc1nnc(SCC(O)(Cn2cncn2)c2ccc(F)cc2F)s1)Nc1ccc(F)cc1F (centres unmarked) [Compound 8p, 1-(2,4-Difluorophenyl)-3-(5-((2-(2,4-difluorophenyl)-2-hydroxy-3-(1H-1,2,4-triazol-1-yl)propyl)thio)-1,3,4-thiadiazol-2-yl)urea] showed an MIC90 (T. rubrum (PTCC 5143)) of 16 µg/mL (≈ 30.4 µM), an MIC90 [2] of 32 µg/mL (≈ 60.9 µM) and an MIC90 (Asp. terreus (PTCC 5023)) of 16 µg/mL (≈ 30.4 µM). For the same compound, the MIC90 [3] was 16 µg/mL (≈ 30.4 µM), the MIC90 [4] was 16 µg/mL (≈ 30.4 µM) and the MIC90 (M. canis (PTCC 5069)) was 16 µg/mL (≈ 30.4 µM). It also gave an MIC90 [5, 24] of 2 to 4 µg/mL (≈ 3.81 to 7.61 µM), an MIC90 [5] of 4 μg·mL^–1 and an MIC90 [6] of 4 μg·mL^–1. It also gave an MIC90 [7] of 8 µg/mL (≈ 15.2 µM), an MIC90 (C. glabrata (ATCC 90030); 24 h) of 32 µg/mL (≈ 60.9 µM) and an MIC90 [8] of 8 µg/mL (≈ 15.2 µM).

With O=C(Nc1ccc(F)cc1)Nc1nnc(SCC(O)(Cn2cncn2)c2ccc(F)cc2F)s1 (centres unmarked) [Compound 8c, 1-(5-((2-(2,4-Difluorophenyl)-2-hydroxy-3-(1H-1,2,4-triazol-1-yl)propyl)thio)-1,3,4-thiadiazol-2-yl)-3-(4-fluorophenyl)urea] the MIC90 (T. rubrum (PTCC 5143)) was 4 µg/mL (≈ 7.88 µM), the PMIC90 [9] was 2 µg/mL and the MIC90 [2] was 0.5 µg/mL (≈ 0.985 µM). For the same compound, the MIC90 (C. albicans (ATCC 10231) [10]; strain A) was 0.5 µg/mL (≈ 0.985 µM), the “fold greater potency than that of FLC” value (C. albicans (ATCC 10231) [10]; strain A, from MIC values) was 32 fold and the “SMIC90 (sessile minimum inhibitory concentration that reduced the metabolic activity of biofilms by 90%)” value [11] was 1 µg/mL. For the same compound, the MIC90 (Asp. niger (PTCC 5154)) was 0.5 µg/mL (≈ 0.985 µM), the “kidney fungal burden, CFU/g (mean ± SD)” value (C. albicans (ATCC 10231) [12]) was 438 CFU/g and 438 ± 54.8 ^b CFU/g and the PMIC90 [13] was 2 µg/mL. It also gave an MIC [14] of 0.25 to 2 µg/mL (≈ 0.493 to 3.94 µM), a PMIC90 [15] of 1 µg/mL and a PMIC90 [16] of 0.5 µg/mL. For the same compound, the PMIC90 [17] was 2 µg/mL, the “cellular uptake of the PI dye” value (C. albicans (ATCC 10231) [18]) was “none of our compounds 8b and 8c (at 1 × MIC, 2 × MIC, or 4 × MIC) induced the cellular uptake of the PI dye” and the cell survival (PANC-1; PANC-1, 100 μg/mL) was > 40%. For the same compound, the “toxicity (in words)” value (PANC-1; PANC-1, at 30 and 60 μg/mL) was “no toxicity”, the “SMIC90 (sessile minimum inhibitory concentration that reduced the metabolic activity of biofilms by 90%)” value [19] was 1 µg/mL and the MIC90 (Asp. terreus (PTCC 5023)) was 0.5 µg/mL (≈ 0.985 µM). For the same compound, the MIC90 [20] was 0.5 µg/mL (≈ 0.985 µM), the PMIC90 [21] was 2 µg/mL and the MIC90 [3] was 2 µg/mL (≈ 3.94 µM). For the same compound, the MIC90 [4] was 16 µg/mL (≈ 31.5 µM), the MIC90 (C. krusei (ATCC 6258)) was 0.5 µg/mL (≈ 0.985 µM) and the “fold greater potency than that of FLC” value (C. krusei (ATCC 6258); from MIC values) was 32 fold. The MIC90 (M. canis (PTCC 5069)) was 16 µg/mL (≈ 31.5 µM), the MIC90 [5, 24] was 16 µg/mL (≈ 31.5 µM) and the “time-kill effect at 4 × MIC” value (C. albicans (ATCC 10231) [22]; at 4 × MIC (2 μg/mL for 8b, 8c; 64 μg/mL for FLC)) was “high fungicidal effect”. The “time-kill effect at MIC” value (C. albicans (ATCC 10231) [22]; at MIC (0.5 μg/mL)) was “fungistatic effect”, the “toxicity (in words)” value (A-431; A-431, 100 μg/mL) was “some toxicity levels” and the “toxicity (in words)” value (A-431; A-431, up to 60 μg/mL) was “no toxicity”. For the same compound, the MIC90 [7] was 2 µg/mL (≈ 3.94 µM), the “hemolysis (in words)” value ([1]; 100 μg/mL) was “limited hemolysis” and the PMIC90 [23] was 2 µg/mL. For the same compound, the “toxicity (in words)” value (HDF normal cells) was “none of the active compounds displayed toxicity”, the MIC90 (C. glabrata (ATCC 90030); 24 h) was 0.5 µg/mL (≈ 0.985 µM) and the MIC90 [8] was 16 µg/mL (≈ 31.5 µM).

For O=C(Nc1cccc(F)c1)Nc1nnc(SCC(O)(Cn2cncn2)c2ccc(F)cc2F)s1 (centres unmarked) [Compound 8g, 1-(5-((2-(2,4-Difluorophenyl)-2-hydroxy-3-(1H-1,2,4-triazol-1-yl)propyl)thio)-1,3,4-thiadiazol-2-yl)-3-(3-fluorophenyl)urea], the MIC90 (T. rubrum (PTCC 5143)) was 4 µg/mL (≈ 7.88 µM), the MIC90 [2] was 16 µg/mL (≈ 31.5 µM) and the MIC90 (C. albicans (ATCC 10231) [10]; strain A) was 2 µg/mL (≈ 3.94 µM). The MIC90 (Asp. niger (PTCC 5154)) was 16 µg/mL (≈ 31.5 µM), the MIC90 (Asp. terreus (PTCC 5023)) was 32 µg/mL (≈ 63.1 µM) and the MIC90 [20] was 16 µg/mL (≈ 31.5 µM). It also gave an MIC90 [3] of 16 µg/mL (≈ 31.5 µM), an MIC90 [4] of 8 µg/mL (≈ 15.8 µM) and an MIC90 (C. krusei (ATCC 6258)) of 2 µg/mL (≈ 3.94 µM). The MIC90 (M. canis (PTCC 5069)) was 8 µg/mL (≈ 15.8 µM), the MIC90 [5, 24] was 2 to 4 µg/mL (≈ 3.94 to 7.88 µM) and the MIC90 [5] was 4 μg·mL^–1. It also gave an MIC90 [6] of 4 μg·mL^–1, an MIC90 [7] of 0.5 µg/mL (≈ 0.985 µM) and an MIC90 (C. glabrata (ATCC 90030); 24 h) of 1 to 16 µg/mL (≈ 1.97 to 31.5 µM). For the same compound, the MIC90 (C. glabrata (ATCC 90030)) was 1 μg·mL^–1 and the MIC90 [8] was 8 µg/mL (≈ 15.8 µM).

For C[C@@H]1[C@H](O)[C@@H](C)/C=C/C=C/C=C/C=C/C=C/C=C/C=C/[C@H](O[C@@H]2O[C@H](C)[C@@H](O)[C@H](N)[C@@H]2O)C[C@@H]2O[C@](O)(C[C@@H](O)C[C@@H](O)[C@H](O)CC[C@@H](O)C[C@@H](O)CC(=O)O[C@H]1C)C[C@H](O)[C@H]2C(=O)O [AMB, amphotericin B, reference compound], the MIC (C. albicans (ATCC 10231) [10]; Candida albicans, ATCC10231) was 1 µg/mL (≈ 1.08 µM) and the “cellular uptake of the PI dye” value (C. albicans (ATCC 10231) [18]) was “increased the PI dye uptake”.

Source: publication PMC8482776 (ACS Omega, 2021)
